Values of other authors in PMC7098970, “Neurosteroids as Selective Inhibitors of Glycine Receptor Activity: Structure-Activity Relationship Study on Endogenous Androstanes and Androstenes” (Frontiers in Molecular Neuroscience, 2020).
Structures can show the parent of a compound that is named as a salt.

Experiments:
GABAAR = system: GABAAR; parameters: method as in Park-Chung et al., 1999; conditions: ref Park-Chung et al., 1999; cited from earlier work
recombinant GlyRs = system: recombinant GlyRs; parameters: method as in Maksay et al. (2001); conditions: expressed in frog oocytes; ref Maksay et al. (2001); read-out: IC50 for inhibition of recombinant GlyRs; cited from earlier work

Row | Compound | Efficacy of potentiation of IGABA (GABAAR) [%] | IC50 (recombinant GlyRs) [µM]
1 | CC(=O)[C@H]1CC[C@H]2[C@@H]3CC[C@H]4C[C@H](O)CC[C@]4(C)[C@H]3CC[C@]12C [3α-hydroxy-5α-pregnane-20-one] | 1373 | 
2 | CC(O)C1CCC2C3CCC4CC(O)CCC4(C)C3CCC12C (stereo not drawn) [20α-hydroxy analog] | 166 | 
3 | C[C@]12CC[C@H](OS(=O)(=O)O)CC1=CCC1C2CC[C@]2(C)C(=O)CCC12 (stereo partly drawn) [DHEA sulfate] |  | 2.5 to 6.3
